Here are results for three compounds from publication PMC7617869, “Molecular glues that inhibit deubiquitylase activity and inflammatory signaling” (Nature Structural & Molecular Biology, 2025).

The test system of series [1] is ISG expression in MCF10A Cas9 cells expressing BRCC45 R137A. Put plainly: MCF10A BRCC45 R137A ISG expression (RT–qPCR). It counts as cell-based, human. Details: scale not given here. The note with it: BRCC45 KO+ BRCC45 R137A; replicate values. On the procedure: (§1) Supplementary Protocols 1. Experimental procedures for cell biology experiments. […]
(§2) Media supplements including human insulin solution (Santa Cruz Biotechnology, #sc-360248), cholera toxin from vibrio (Sigma Aldrich, #C8052-2MG), recombinant human EGF (PeproTech, #AF-100-15-100µg), hydrocortisone (Sigma-Aldrich, #H-0888) were used to grow MCF10A cells. The 4–12% Bis-Tris SDS-PAGE gels, cell culture media, horse serum and other materials for tissue culture were purchased from Invitrogen. LipoD293 (SigmaGen, #SL100668) was used for all the transfections to generate knock out cell lines.
(§3) Immortalised breast epithelial cell line MCF10A were cultured in 10 cm plates with Dulbecco’s Modified Eagle Medium (DMEM) + F-12 (1:1) supplemented with 5% horse serum, 100 ng/mL cholera toxin, 10 […]
(§4) Real-time quantitative PCR
(§5) 1x10^5 MCF10A cells were cultured as described above and seeded into 6 well plates. Cells were left to reach ultra-confluence. Once confluent, cells were washed with PBS and starved for 30 minutes in 2 mL DMEM + F-12 (1:1) supplemented with 1% horse serum. After 30 minutes cells were pre-treated with either DMSO (0.1%) (Control and IFN only) or BRISC inhibitor (2.5 µM) for 15 minutes. After 15 minutes, hIFN2α (75 ng/mL) was added to the media and mixed. Cells were treated for 4 hours. Cells were washed with ice cold PBS and scraped with cell scrapers into 350 µL RNAlater buffer and RNA […]
(§6) #79254). Isolated RNA was quantified using a Nanodrop spectrophotometer. RNA was converted into cDNA and the complementary DNA was used for real-time quantitative PCR analysis of expression of interferon stimulated genes (ISG15, IFIT1, IFIT2, IFITM1, CXCL10 and RNA18S) using an Applied Biosystems Quantstudio 6 RT-PCR system. All experiments were carried out in triplicate.
Background: Real-time PCR tracks product formation cycle by cycle.

In series [2] the test system is CXCL10 secretion in SSc PBMCs. In words: SSc PBMC CXCL10 ELISA, unstimulated. It counts as cell-based, human. The note with it: for CXCL10 secretion: basal, nonstimulated SSc PBMCs, 16 h. On the procedure:
PBMCs in vitro experiments
Peripheral blood mononuclear cells (PBMCs) from healthy and SSc donors were separated using density gradient method (Leucosep™, Greiner Bio-One International) from EDTA anticoagulated peripheral blood; isolated cells were washed twice by PBS. PBMCs were then incubated in RPMI1640 […]
For healthy PBMCs, cells were stimulated with 20 ng/mL of IFN (+/- compounds or DMSO). For SSc PBMCs, cells were in basal conditions with no additional IFN stimulation. Cells were centrifuged at 300 g for 10 minutes. Supernatant was removed and subjected to R&D Systems DY266 Human CXCL10/IP-10 DuoSet ELISA (Biotechne) in duplicates, according to manufacturer’s guidance. Concentration of CXCL10 was determined according to a 4-parameter

In series [3] the test system is ISG expression in MCF10A Cas9 cells expressing BRCC45 WT. Put plainly: MCF10A BRCC45 WT ISG expression (RT–qPCR). Details: scale not given here. Format: cell-based, human. The note with it: BRCC45 KO+ BRCC45 WT; replicate values. On the procedure: as §1, §2, §3, §4, §5, §6
For series [4], the system named is NF-κB pathway in THP-1 cells. Put plainly: THP-1 NF-κB pathway SEAP reporter, lipopolysaccharide stimulation. The note with it: LPS + compound, three replicates. It counts as cell-based, human. Here is the method:
(§7) THP-1 in vitro experiments
(§8) THP-1-DualTM cells (InvivoGen), derived from a human monocytic cell line, isolated from a patient with acute monocytic leukaemia, were cultured as per manufacturer’s guidance. Cells were seeded at 1x10^6 cells/mL in RPMI1640 media containing 10% fetal bovine serum (FBS), 1% penicillin-streptomycin (PS) (Gibco Laboratories) with DMSO (0.1%) (control) or in media containing JMS-175- […]
(§9) ng/mL) (Merck Life Science), ODN 2216 (1 µM) (Miltenyi Biotec), or Poly:IC (1 µg/mL) (InvivoGen).
(§10) Tofacitinib (Cambridge Biosciences) at 0.4 µM was used for comparison against a known JAK inhibitor.
(§11) Cells were centrifuged at 300 g for 5 minutes. Supernatant was removed and subjected to simultaneous study of the NF -κB pathway, by monitoring the activity of secreted alkaline phosphatase reporter (SEAP), and the IRF pathway, by assessing the activity o f a secreted Lucia luciferase using QUANTI - Blue ™ Solution and QUANTI -Luc™ 4 Lucia/Gaussia (InvivoGen), respectively, as per manufacturer’s instructions. Pelleted cells were used for FACS analysis using IFNα/β R1 APC-conjugated antibody or isotype control (Biotechne, FAB245A and IC002A), or unstained staining procedure with and without Zombie GreenTM (Biolegend). Samples were analysed using CytoFlex LX (Beckman) (50,000 live cells per condition). Median fluorescence intensity for APC channel gated on single cell live cells was analysed and compared as a percentage to control (no stimulation condition). […]

The test system of the next series is THP-1 cells. In words: THP-1 live cell percentage. Format: cell-based. The note with it: THP-1, hIFNα2 25 ng/mL, 4 μM compound, 16 h. Here is the method: as §7, §8, §9, §10, §11
The test system of series [5] is IFN-stimulated response elements (ISRE) in THP-1 cells. Put plainly: THP-1 ISRE luciferase reporter, IFNα2 stimulation. It counts as cell-based, human. The note with it: IFN + compound; replicate values. Here is the method: as §7, §8, §9, §10, §11
Series [6] concerns ISRE in THP-1 cells (TLR3 agonist polyI:C). Put plainly: THP-1 ISRE luciferase reporter, polyI:C stimulation. The note with it: polyI:C 1 µg/mL, 4 μM compound, 16 h. It counts as cell-based, human. On the procedure: as §7, §8, §9, §10, §11
For orientation: Reporter assays use an easily measured gene product as a stand-in for the process of interest.

Several values for one entry are separate records, joined by “and”; a condition that tells them apart may be missing. Equal values may be shown once.

For the compound `Cn1cc(NC(=O)c2c(Cl)cccc2Cl)c(C(=O)NC2CCN(C(=O)c3c(Cl)cccc3Cl)CC2)n1` [AP-5-145], the “ISG expression (Fig. 5b)” value in series [1] is 1.156 and 0.9393 and 0.8616 and 0.9356 and 0.9314; in series [3] it was 0.8808 and 1 and 0.9871 and 1.027 and 0.974. In addition, the “ISG expression (Fig. 5c)” value in series [1] was 1.216 and 0.9273 and 0.916 and 0.9352 and 0.7895; in series [3] it was 0.8403 and 0.921 and 1.057 and 1.089 and 1.101. The “ISG expression (Fig. 5e)” value in series [1] was 1.091 and 0.9001 and 0.8733 and 0.8458 and 0.7765; in series [3], 0.7343 and 0.7561 and 0.8094 and 1.106 and 1.138. The “ISG expression (Fig. 5f)” value in series [1] is 1.662 and 0.8736 and 0.8819 and 0.8534 and 1.058; in series [3] it was 0.7564 and 0.7183 and 0.7628 and 1.249 and 0.9766. Also, the “ISG expression (Fig. 5d)” value in series [1] was 1.117 and 1.15 and 0.9989 and 1.074 and 0.7573; in series [3], 1.013 and 1.064 and 1.1762 and 1.007 and 0.9192. Besides, the “CXCL10, SSc donor PBMCs (Fig. 6d)” value in series [2] (SSc donor ID 68) is 80; in series [2] (SSc donor ID 78) it was 67.741; in series [2] (SSc donor ID 79), 66.2158; in series [2] (SSc donor ID 142) it was 86.6322; in series [2] (SSc donor ID 205), 91.7468; in series [2] (SSc donor ID 219) it was 90.6622. In addition, the “CXCL10, SSc donor PBMCs (Fig. 6d)” value in series [2] (SSc donor ID 244) is reported as 57.7808. For the same compound, the “NF-κB SEAP reporter signal” value in series [4] is 1.142 and 1.08 and 1.107. Further, the “percentage of live cells” value in the series on THP-1 cells was 98.52%. In series [5], the “ISRE luciferase reporter signal (Fig. 5a)” value was 5071.67 and 5115.33 and 6389 and 6090.67. Moreover, the “ISRE luciferase signal in THP-1 supernatant” value (“ISRE luciferase signal” below) in series [6] is 502.333 and 324.667 and 347.333.
Regarding `O=C(NC1C2CNCC21)c1nn(C(=O)c2c(Cl)cccc2Cl)cc1NC(=O)c1c(Cl)cccc1Cl` (centres unmarked) [FX-171-C], the “ISG expression (Fig. 5b)” value in series [1] is 1.886 and 0.9791 and 0.9889 and 0.9654 and 2.3346; in series [3], 0.4458 and 0.5019 and 0.5077 and 0.4274 and 0.4977. Further, the “ISG expression (Fig. 5c)” value in series [1] was 1.805 and 0.9044 and 1.045 and 1.083 and 2.1; in series [3], 0.4481 and 0.428 and 0.4516 and 0.3326 and 0.4475. In addition, the “ISG expression (Fig. 5e)” value in series [1] is 1.992 and 0.8788 and 0.9319 and 1.019 and 2.187; in series [3] it was 0.653 and 0.6751 and 0.6387 and 0.3593 and 0.4619. Also, the “ISG expression (Fig. 5f)” value in series [1] was 1.937 and 0.8462 and 0.8933 and 0.87 and 0.6063; in series [3], 0.6515 and 0.6181 and 0.6111 and 0.3694 and 0.504. Moreover, the “ISG expression (Fig. 5d)” value is 2.039 and 1.092 and 1.112 and 1.2514 and 2.244 in series [1]; 0.3965 and 0.3703 and 0.3895 and 0.4078 and 0.5134 in series [3]. In addition, the “CXCL10, SSc donor PBMCs (Fig. 6d)” value in series [2] (SSc donor ID 68) is 72.6224; in series [2] (SSc donor ID 78), 6.824; in series [2] (SSc donor ID 79), 0; in series [2] (SSc donor ID 142) it was 86.6599; in series [2] (SSc donor ID 205), 108.154; in series [2] (SSc donor ID 219), 48.1818. Besides, the “CXCL10, SSc donor PBMCs (Fig. 6d)” value in series [2] (SSc donor ID 244) was 0. In addition, the CXCL10 secretion entry in series [2] is listed as “reduced CXCL10 secretion”. Moreover, in series [4], the “NF-κB SEAP reporter signal” value was 1.133 and 1.071 and 1.161. Besides, in the series on THP-1 cells, the “percentage of live cells” value turned out to be 97.99%. Further, in series [5], the “ISRE luciferase reporter signal (Fig. 5a)” value was 3973.33 and 4177.33 and 5441.67 and 5023.67. In series [6], the “ISRE luciferase signal” value is 374 and 491 and 321.
Consider `O=C(NC1CCNCC1)c1nn(C(=O)c2c(Cl)cccc2Cl)cc1NC(=O)c1c(Cl)cccc1Cl` [JMS-175-2], for which the “ISG expression (Fig. 5b)” value is 1.361 and 1.11 and 1.149 and 1.082 and 0.8783 in series [1]; 0.5319 and 0.5863 and 0.5604 and 0.6288 and 0.7746 in series [3]. The “ISG expression (Fig. 5c)” value in series [1] was 1.325 and 1.127 and 1.329 and 1.145 and 0.8628; in series [3], 0.5095 and 0.5499 and 0.6199 and 0.6187 and 0.6726. Also, the “ISG expression (Fig. 5e)” value in series [1] was 1.156 and 1.163 and 1.393 and 1.185 and 1.136; in series [3], 0.6564 and 0.7321 and 0.7949 and 0.5784 and 0.6638. Moreover, the “ISG expression (Fig. 5f)” value in series [1] is 1.041 and 1.139 and 1.224 and 1.412 and 1.207; in series [3], 0.7407 and 0.6852 and 0.6633 and 0.7235 and 0.5173. Further, the “ISG expression (Fig. 5d)” value was 1.23 and 1.313 and 1.719 and 1.523 and 0.8668 in series [1]; 0.4933 and 0.4932 and 0.5473 and 0.4528 and 0.6627 in series [3]. The “CXCL10, SSc donor PBMCs (Fig. 6d)” value in series [2] (SSc donor ID 68) came out at 66.733; in series [2] (SSc donor ID 78), 0; in series [2] (SSc donor ID 79), 0; in series [2] (SSc donor ID 142), 7.1246; in series [2] (SSc donor ID 205), 83.3318; in series [2] (SSc donor ID 219), 3.3086. Further, the “CXCL10, SSc donor PBMCs (Fig. 6d)” value in series [2] (SSc donor ID 244) came out at 0. Moreover, the CXCL10 secretion entry in series [2] was “reduced CXCL10 secretion”. Besides, the “NF-κB SEAP reporter signal” value in series [4] is 1.156 and 1.103 and 1.152. In the series with THP-1 cells, the “percentage of live cells” value came out at 98.05%. Further, in series [5], the “ISRE luciferase reporter signal (Fig. 5a)” value is 2914 and 3263.67 and 4737.67 and 4742.67. For the same compound, in series [6], the “ISRE luciferase signal” value is 486.333 and 543 and 491.
